{
  "source": "paper PMC11863921",
  "about": "(BMC Biology, 2025)",
  "key": {"AsolLGR4(short)": {"tested_on": "AsolLGR4(short)", "experiment": "CRE reporter gene assay in HEK-293T cells transfected with AsolLGR4(short)", "assay_type": "cell-based, A. cf. solaris", "details": "HEK-293T cells with AsolLGR4(short), any concentration tested", "from_the_text": "(§1) The coding sequences for AsolRXFP/LGR3, AsolLGR4(short), and AsolLGR4(long) lacking a native N-terminal signal peptide were optimized for mammalian codon usage, but with the addition of a 5′ nucleotide sequence encoding an N-terminal bovine prolactin precursor signal peptide followed by a FLAG tag. The coding sequences for each construct are presented in Additional file 16: Dataset S9. Following the addition of a Kozak sequence (GCCACC) before the start codon of each coding sequence, the receptor cDNAs were synthesized in pUC57 vectors (GenScript, Hong Kong) with BamHI and XhoI restriction sites and Gateway‐compatible attB5 and attB2 sites at both ends to also allow recloning into pcDNA3.1/Zeo ( +) or Gateway (Invitrogen) vectors. pUC57 vectors were first digested with BamHI and XhoI restriction enzymes together with pcDNA3.1/Zeo ( +) followed by agarose gel purification of the digested DNA. Receptor constructs were ligated into the cut pcDNA3.1/Zeo ( +) vector to produce pcDNA-AsolRXFP/LGR3, pcDNA − AsolLGR4(short), and pcDNA − AsolLGR4(long). The sequences were confirmed by using Sanger sequencing on both strands. The AsolRXFP/LGR3 sequence was cloned into a lentiviral vector under the control of the constitutive human Ef1α promoter using Gateway technology (Invitrogen), according to the manufacturer’s instructions. […]"}, "[1]": {"tested_on": "ovarian fragments of A. cf. solaris", "experiment": "In vitro spawning assay with ovarian fragments of A. cf. solaris", "details": "1 h; for gonadotropic activity (shedding of mature eggs / spawning): 2 × 10^−10–2 × 10^−6 M, four separate assays", "from_the_text": "Adult A. cf. solaris were collected from the Great Barrier Reef by Pacific Marine Group divers associated with the Great Barrier Reef Marine Park Authority (GBRMPA) before being transported to the University of the Sunshine Coast aquarium facility. Animals were briefly maintained in a re-circulating protein-skimmed and aerated saltwater system of approximately 1500 L. The animals used were approximately 25–55 cm in diameter and kept unfed for the duration of the experiment. The gender and ovarian maturation stage was determined by using a minor gonad tissue biopsy technique and, thereafter, animals were individually segregated in a flowthrough aerated tank filled with approximately 55 L of filtered seawater for a minimum of 24 h to recover and acclimatize.\nAsoRGP1 and AsoRGP2 were synthesized as described previously. In addition, a modified form of AsoRGP2 was synthesized in which the N-terminal residue of the A-chain (glutamine, Q) was substituted with pyroglutamate (pQ), recognizing the possibility of this potential post-translational modification. […] In vitro spawning assays using ovarian fragments were performed following procedures described previously. In brief, the ovaries were excised and cut using scissors into small fragments containing only a few lobes. The ovarian fragments were then incubated in artificial seawater containing RGP-type peptides at a range of concentrations (2 × 10^−10–2 × 10^−6 M) for 1 h. As a control experiment, ovarian fragments were incubated in artificial seawater alone. The samples were examined to determine whether or not in vitro spawning had occurred and were scored as follows: (+ + +) spawning occurred and most oocytes had matured; (+ +) about 50% of oocytes had matured, ( +) a few oocytes had matured and ( −): no spawning occurred. […] Means ± standard error of mean (SEM) were determined from four separate assays using ovaries from four different animals."}, "AsolLGR4(long)": {"tested_on": "AsolLGR4(long)", "experiment": "CRE reporter gene assay in HEK-293T cells transfected with AsolLGR4(long)", "assay_type": "cell-based, A. cf. solaris", "details": "HEK-293T cells with AsolLGR4(long), any concentration tested", "from_the_text": "as §1"}},
  "note": "“Also recorded” adds a separate entry of the source.",
  "data": [
    {"substance": "Acanthaster cf. solaris Relaxin-like gonad-stimulating peptide 2 [AsolRGP2]", "values": [
      {"measurement": "cAMP activity / CRE reporter gene activation", "setting": "AsolLGR4(short)", "value": "no significant increase in cAMP levels; also recorded: Neither AsolRGP1 nor AsolRGP2 induced CRE reporter gene activation"},
      {"measurement": "gonadotropic activity (shedding of mature eggs / spawning)", "setting": "[1]", "value": "exhibited gonadotropic activity; also recorded: dose-dependent induction of spawning"},
      {"measurement": "relative potency in inducing shedding of mature eggs / spawning", "setting": "[1]; semi-quantitative, compared with RGP1 or unmodified RGP2", "value": "slightly less potent than RGP1"},
      {"measurement": "cAMP activity / CRE reporter gene activation", "setting": "AsolLGR4(long)", "value": "no significant increase in cAMP levels; also recorded: Neither AsolRGP1 nor AsolRGP2 induced CRE reporter gene activation"}
    ]},
    {"substance": "Acanthaster cf. solaris Relaxin-like gonad-stimulating peptide 1 [AsolRGP1]", "values": [
      {"measurement": "cAMP activity / CRE reporter gene activation", "setting": "AsolLGR4(short)", "value": "no significant increase in cAMP levels; also recorded: Neither AsolRGP1 nor AsolRGP2 induced CRE reporter gene activation"},
      {"measurement": "gonadotropic activity (shedding of mature eggs / spawning)", "setting": "[1]", "value": "exhibited gonadotropic activity; also recorded: dose-dependent induction of spawning"},
      {"measurement": "cAMP activity / CRE reporter gene activation", "setting": "AsolLGR4(long)", "value": "no significant increase in cAMP levels; also recorded: Neither AsolRGP1 nor AsolRGP2 induced CRE reporter gene activation"}
    ]}
  ]
}
